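48-hour exposure; five concentrations; linearly interpolated endpoints. Here, GI50 denotes the concentration required for 50% inhibition of growth.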 Active and inactive are the calls of the source. Cut-off read from the data, not from the text of the source: active = GI50 up to about 1.1 µM and inactive = higher.
How the values were obtained:
Assay in all cases: inhibition of tumour cell growth, NCI panel, 48 h
SNB-19 = tested on: SNB-19
Hs-578T = tested on: Hs-578T
RPMI-8226 = tested on: RPMI-8226
786-0 = tested on: 786-0
OVCAR-8 = tested on: OVCAR-8
NCI/ADR-RES = tested on: NCI/ADR-RES
HCT-116 = tested on: HCT-116
LOX IMVI = tested on: LOX IMVI
HCT-15 = tested on: HCT-15
UACC-257 = tested on: UACC-257
Malme-3M = tested on: Malme-3M
SK-MEL-5 = tested on: SK-MEL-5
HT-29 = tested on: HT-29
MCF7 = tested on: MCF7
OVCAR-4 = tested on: OVCAR-4
TK-10 = tested on: TK-10
UO-31 = tested on: UO-31
MDA-MB-231 = tested on: MDA-MB-231
RXF 393 = tested on: RXF 393
SNB-75 = tested on: SNB-75
MDA-N = tested on: MDA-N
ACHN = tested on: ACHN
U-251 = tested on: U-251
DU-145 = tested on: DU-145
PC-3 = tested on: PC-3
SF-539 = tested on: SF-539
NCI-H460 = tested on: NCI-H460
SR = tested on: SR
SF-295 = tested on: SF-295
M14 = tested on: M14
MDA-MB-435 = tested on: MDA-MB-435
OVCAR-3 = tested on: OVCAR-3
MOLT-4 = tested on: MOLT-4
HCC 2998 = tested on: HCC 2998
HOP-92 = tested on: HOP-92
SK-MEL-2 = tested on: SK-MEL-2
OVCAR-5 = tested on: OVCAR-5
EKVX = tested on: EKVX
SW-620 = tested on: SW-620
IGROV-1 = tested on: IGROV-1
NCI-H522 = tested on: NCI-H522
A549 = tested on: A549
SK-MEL-28 = tested on: SK-MEL-28
A498 = tested on: A498
HL-60 = tested on: HL-60
CCRF-CEM = tested on: CCRF-CEM
SF-268 = tested on: SF-268
T47D = tested on: T47D
NCI-H23 = tested on: NCI-H23
SK-OV-3 = tested on: SK-OV-3
HOP-62 = tested on: HOP-62
CAKI-1 = tested on: CAKI-1
K562 = tested on: K562
COLO 205 = tested on: COLO 205
NCI-H226 = tested on: NCI-H226
KM12 = tested on: KM12
UACC-62 = tested on: UACC-62

## CCOC(=O)C(Cc1ccc2c(c1)CCC2)(Cc1ccc2c(c1)CCC2)C(=O)OCC
SNB-19
  GI50: > 100 µM (inactive)
Hs-578T
  GI50: > 100 µM (inactive)
RPMI-8226
  GI50: 55.7 µM (inactive)
786-0
  GI50: 94.2 µM (inactive)
OVCAR-8
  GI50: > 100 µM (inactive)
NCI/ADR-RES
  GI50: > 100 µM (inactive)
HCT-116
  GI50: 31.7 µM (inactive)
LOX IMVI
  GI50: 71.1 µM (inactive)
HCT-15
  GI50: 61.7 µM
UACC-257
  GI50: 34.7 µM (inactive)
Malme-3M
  GI50: 21.1 µM (inactive)
SK-MEL-5
  GI50: 33.8 µM (inactive)
HT-29
  GI50: 30.5 µM (inactive)
MCF7
  GI50: 52.6 µM (inactive)
OVCAR-4
  GI50: > 100 µM (inactive)
TK-10
  GI50: > 100 µM (inactive)
UO-31
  GI50: 71.9 µM (inactive)
MDA-MB-231
  GI50: 47.1 µM (inactive)
RXF 393
  GI50: 23.4 µM (inactive)
SNB-75
  GI50: > 100 µM (inactive)
MDA-N
  GI50: 46 µM (inactive)
ACHN
  GI50: > 100 µM (inactive)
U-251
  GI50: > 100 µM (inactive)
DU-145
  GI50: > 100 µM (inactive)
PC-3
  GI50: 32.5 µM (inactive)
SF-539
  GI50: 81.7 µM (inactive)
NCI-H460
  GI50: 51.3 µM (inactive)
SR
  GI50: 19 µM (inactive)
SF-295
  GI50: 80.7 µM (inactive)
M14
  GI50: 96.2 µM (inactive)
MDA-MB-435
  GI50: 44.6 µM (inactive)
OVCAR-3
  GI50: 26.1 µM (inactive)
MOLT-4
  GI50: 23.6 µM (inactive)
HCC 2998
  GI50: 49 µM (inactive)
HOP-92
  GI50: 26.9 µM (inactive)
SK-MEL-2
  GI50: 35.6 µM (inactive)
OVCAR-5
  GI50: > 100 µM (inactive)
EKVX
  GI50: 17.4 µM (inactive)
SW-620
  GI50: > 100 µM (inactive)
IGROV-1
  GI50: > 100 µM (inactive)
NCI-H522
  GI50: 29.9 µM (inactive)
A549
  GI50: 47.5 µM (inactive)
SK-MEL-28
  GI50: 51.5 µM (inactive)
A498
  GI50: > 100 µM (inactive)
HL-60
  GI50: 31.5 µM (inactive)
CCRF-CEM
  GI50: 32.2 µM (inactive)
SF-268
  GI50: 56.9 µM (inactive)
T47D
  GI50: 34.2 µM (inactive)
NCI-H23
  GI50: 98.4 µM (inactive)
SK-OV-3
  GI50: > 100 µM (inactive)
HOP-62
  GI50: > 100 µM (inactive)
CAKI-1
  GI50: > 100 µM (inactive)
K562
  GI50: 58.5 µM (inactive)

## CCOC(C)O[C@H]1C(=O)OCC1(C)C (stereo partly drawn)
SNB-19
  GI50: > 100 µM (inactive)
Hs-578T
  GI50: > 100 µM (inactive)
RPMI-8226
  GI50: > 100 µM (inactive)
COLO 205
  GI50: > 100 µM (inactive)
786-0
  GI50: > 100 µM (inactive)
OVCAR-8
  GI50: > 100 µM (inactive)
NCI-H226
  GI50: > 100 µM (inactive)
NCI/ADR-RES
  GI50: > 100 µM (inactive)
LOX IMVI
  GI50: > 100 µM (inactive)
HCT-15
  GI50: > 100 µM
UACC-257
  GI50: > 100 µM (inactive)
Malme-3M
  GI50: > 100 µM (inactive)
SK-MEL-5
  GI50: > 100 µM (inactive)
HT-29
  GI50: > 100 µM (inactive)
MCF7
  GI50: > 100 µM (inactive)
OVCAR-4
  GI50: > 100 µM (inactive)
TK-10
  GI50: > 100 µM (inactive)
UO-31
  GI50: > 100 µM (inactive)
MDA-MB-231
  GI50: > 100 µM (inactive)
RXF 393
  GI50: > 100 µM (inactive)
SNB-75
  GI50: > 100 µM (inactive)
MDA-N
  GI50: > 100 µM (inactive)
ACHN
  GI50: > 100 µM (inactive)
U-251
  GI50: > 100 µM (inactive)
DU-145
  GI50: > 100 µM (inactive)
PC-3
  GI50: > 100 µM (inactive)
SF-539
  GI50: > 100 µM (inactive)
KM12
  GI50: > 100 µM (inactive)
NCI-H460
  GI50: > 100 µM (inactive)
SR
  GI50: > 100 µM (inactive)
SF-295
  GI50: > 100 µM (inactive)
M14
  GI50: > 100 µM (inactive)
MDA-MB-435
  GI50: > 100 µM (inactive)
OVCAR-3
  GI50: > 100 µM (inactive)
MOLT-4
  GI50: 34.9 µM (inactive)
HCC 2998
  GI50: > 100 µM (inactive)
HOP-92
  GI50: > 100 µM (inactive)
SK-MEL-2
  GI50: > 100 µM (inactive)
OVCAR-5
  GI50: > 100 µM (inactive)
EKVX
  GI50: > 100 µM (inactive)
SW-620
  GI50: > 100 µM (inactive)
IGROV-1
  GI50: > 100 µM (inactive)
A549
  GI50: > 100 µM (inactive)
UACC-62
  GI50: > 100 µM (inactive)
SK-MEL-28
  GI50: > 100 µM (inactive)
A498
  GI50: > 100 µM (inactive)
HL-60
  GI50: > 100 µM (inactive)
CCRF-CEM
  GI50: > 100 µM (inactive)
SF-268
  GI50: > 100 µM (inactive)
T47D
  GI50: > 100 µM (inactive)
NCI-H23
  GI50: > 100 µM (inactive)
SK-OV-3
  GI50: > 100 µM (inactive)
HOP-62
  GI50: > 100 µM (inactive)
CAKI-1
  GI50: > 100 µM (inactive)
K562
  GI50: 80.7 µM (inactive)

From ChEMBL document CHEMBL1201862, “PubChem BioAssay data set” (2004)
